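Cultured in 96-well plates, cells were exposed to test compound for 48 hours across five concentrations. GI50 is the concentration that inhibits growth by half.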 Active and inactive are the calls of the source. No stated cut-off is given here; in the data, active = GI50 up to about 1.1 µM and inactive = higher.
Tests used:
Test in all cases: NCI-60 cell line screen, 48 h
UO-31 = test system: UO-31
SR = test system: SR
ACHN = test system: ACHN
HOP-92 = test system: HOP-92
MOLT-4 = test system: MOLT-4
HT-29 = test system: HT-29
IGROV-1 = test system: IGROV-1
RPMI-8226 = test system: RPMI-8226
NCI-H460 = test system: NCI-H460
Malme-3M = test system: Malme-3M
A549 = test system: A549
HCT-15 = test system: HCT-15
OVCAR-5 = test system: OVCAR-5
MDA-N = test system: MDA-N
COLO 205 = test system: COLO 205
EKVX = test system: EKVX
CCRF-CEM = test system: CCRF-CEM
UACC-257 = test system: UACC-257
SK-MEL-5 = test system: SK-MEL-5
RXF 393 = test system: RXF 393

SMILES	GI50 (UO-31)	GI50 (SR)	GI50 (ACHN)	GI50 (HOP-92)	GI50 (MOLT-4)	GI50 (HT-29)	GI50 (IGROV-1)	GI50 (RPMI-8226)	GI50 (NCI-H460)	GI50 (Malme-3M)	GI50 (A549)	GI50 (HCT-15) [µM]	GI50 (OVCAR-5)	GI50 (MDA-N)	GI50 (COLO 205)	GI50 (EKVX)	GI50 (CCRF-CEM)	GI50 (UACC-257)	GI50 (SK-MEL-5)	GI50 (RXF 393)
Cc1ccc(O)c(-c2cscn2)c1	22.8 µM (inactive)	40.4 µM (inactive)	32 µM (inactive)	43.7 µM (inactive)	35.1 µM (inactive)	62.5 µM (inactive)	55.7 µM (inactive)	36 µM (inactive)	28.5 µM (inactive)	> 100 µM (inactive)	29.7 µM (inactive)	31.6	11.2 µM (inactive)	40.2 µM (inactive)	12.5 µM (inactive)	32.2 µM (inactive)	0.37 µM (active)	73.1 µM (inactive)	23.7 µM (inactive)	–
CN/C(=N\N)NS(=O)(=O)c1cc(C)c(Cl)cc1S	25.1 µM (inactive)	44 µM (inactive)	–	75.2 µM (inactive)	> 10 µM (inactive)	40.4 µM (inactive)	86.3 µM (inactive)	74 µM (inactive)	–	46.8 µM (inactive)	29.9 µM (inactive)	48.2	93.5 µM (inactive)	> 100 µM (inactive)	> 100 µM (inactive)	81.7 µM (inactive)	43.6 µM (inactive)	> 100 µM (inactive)	30.7 µM (inactive)	33.4 µM (inactive)
COC(=O)CCC(=O)NC1=C(NCc2ccccc2)C(=O)c2ccccc2C1=O	32.6 µM (inactive)	27.9 µM (inactive)	27.4 µM (inactive)	15.7 µM (inactive)	34 µM (inactive)	25.7 µM (inactive)	17.7 µM (inactive)	34 µM (inactive)	18 µM (inactive)	–	26.2 µM (inactive)	17	29.5 µM (inactive)	16 µM (inactive)	20.4 µM (inactive)	32.9 µM (inactive)	35.8 µM (inactive)	16.6 µM (inactive)	12.1 µM (inactive)	34.7 µM (inactive)
COc1ccc2c(c1)CCc1[nH]c3ccccc3c1CCCC2	–	> 10 µM (inactive)	> 10 µM (inactive)	> 10 µM (inactive)	> 10 µM (inactive)	> 10 µM (inactive)	> 10 µM (inactive)	> 10 µM (inactive)	–	> 10 µM (inactive)	> 10 µM (inactive)	> 10	> 10 µM (inactive)	> 10 µM (inactive)	> 10 µM (inactive)	–	> 10 µM (inactive)	> 10 µM (inactive)	> 10 µM (inactive)	–
COc1ccccc1CNC(=O)[C@H](Cc1ccc(O)cn1)NC(C)=O	> 100 µM (inactive)	> 100 µM (inactive)	> 100 µM (inactive)	57.7 µM (inactive)	–	> 100 µM (inactive)	> 100 µM (inactive)	> 100 µM (inactive)	> 100 µM (inactive)	> 100 µM (inactive)	> 100 µM (inactive)	> 100	> 100 µM (inactive)	> 100 µM (inactive)	> 100 µM (inactive)	> 100 µM (inactive)	> 100 µM (inactive)	> 100 µM (inactive)	> 100 µM (inactive)	> 100 µM (inactive)
CC(=O)O[C@H]1[C@H](OC(C)=O)[C@@H](CN=[N+]=[N-])OCO[C@@H]1CN=[N+]=[N-]	–	> 100 µM (inactive)	> 100 µM (inactive)	> 100 µM (inactive)	> 100 µM (inactive)	> 100 µM (inactive)	> 100 µM (inactive)	> 100 µM (inactive)	> 100 µM (inactive)	> 100 µM (inactive)	> 100 µM (inactive)	> 100	> 100 µM (inactive)	> 100 µM (inactive)	> 100 µM (inactive)	> 100 µM (inactive)	> 100 µM (inactive)	> 100 µM (inactive)	> 100 µM (inactive)	> 100 µM (inactive)
COC(=O)Cc1c(-c2c(CC(=O)OC)c3ccccc3n2C2OC(COC3OC(COC(C)=O)C(OC(C)=O)C(OC(C)=O)C3OC(C)=O)C(O)C(O)C2O)[nH]c2ccccc12 (stereo not drawn)	> 100 µM (inactive)	> 100 µM (inactive)	> 100 µM (inactive)	27.9 µM (inactive)	> 100 µM (inactive)	> 100 µM (inactive)	75.3 µM (inactive)	> 100 µM (inactive)	> 100 µM (inactive)	–	> 100 µM (inactive)	> 100	> 100 µM (inactive)	> 100 µM (inactive)	> 100 µM (inactive)	> 100 µM (inactive)	> 100 µM (inactive)	> 100 µM (inactive)	> 100 µM (inactive)	–
Cc1ccc(NCc2nnc3c(-c4ccccc4)nc4ccccc4n23)cc1	–	13 µM (inactive)	23.9 µM (inactive)	16 µM (inactive)	16 µM (inactive)	21.5 µM (inactive)	17.5 µM (inactive)	–	28.8 µM (inactive)	37.2 µM (inactive)	23.2 µM (inactive)	38.5	39.9 µM (inactive)	26.2 µM (inactive)	32.8 µM (inactive)	18.7 µM (inactive)	15.1 µM (inactive)	36 µM (inactive)	14.4 µM (inactive)	34.8 µM (inactive)
CCOC(=O)/C=C(/C(=O)OCC)n1cc(Cl)c(=O)n(CC(=O)OCC)c1=O	–	5.24 µM (inactive)	3.4 µM (inactive)	5.15 µM (inactive)	1.15 µM (inactive)	4.56 µM (inactive)	4.76 µM (inactive)	2.47 µM (inactive)	9.02 µM (inactive)	6.11 µM (inactive)	6.41 µM (inactive)	5.46	4.52 µM (inactive)	5.81 µM (inactive)	0.787 µM (active)	5.27 µM (inactive)	0.444 µM (active)	4.94 µM (inactive)	5.66 µM (inactive)	4.57 µM (inactive)
Cn1c(C(O)C2(c3cccnc3)SCCCS2)cc2ccccc21 (stereo not drawn)	37.2 µM (inactive)	55.5 µM (inactive)	> 100 µM (inactive)	> 100 µM (inactive)	–	> 100 µM (inactive)	30 µM (inactive)	38.5 µM (inactive)	99.3 µM (inactive)	> 100 µM (inactive)	> 100 µM (inactive)	> 100	> 100 µM (inactive)	> 100 µM (inactive)	> 100 µM (inactive)	72.3 µM (inactive)	84.7 µM (inactive)	53.3 µM (inactive)	37.6 µM (inactive)	–
CC(/C=C/c1ccccc1)=N\NC(N)=S	32.1 µM (inactive)	23.2 µM (inactive)	38 µM (inactive)	> 100 µM (inactive)	24.4 µM (inactive)	56.6 µM (inactive)	21 µM (inactive)	33.7 µM (inactive)	61.2 µM (inactive)	45.7 µM (inactive)	47.5 µM (inactive)	27.4	58.5 µM (inactive)	29.6 µM (inactive)	20.5 µM (inactive)	17.7 µM (inactive)	49.7 µM (inactive)	47.9 µM (inactive)	38.5 µM (inactive)	–
C=C1CCCCCCCCCCC1[S+]([O-])c1ccccc1 (stereo not drawn)	18.2 µM (inactive)	25.2 µM (inactive)	29.8 µM (inactive)	> 100 µM (inactive)	21.8 µM (inactive)	40.3 µM (inactive)	16 µM (inactive)	20.8 µM (inactive)	58.9 µM (inactive)	> 100 µM (inactive)	33.3 µM (inactive)	41.7	49.8 µM (inactive)	34 µM (inactive)	25.6 µM (inactive)	> 100 µM (inactive)	–	47.1 µM (inactive)	29.5 µM (inactive)	26.5 µM (inactive)
Cc1cc(S(=O)(=O)NC2=Nc3cccc4cccc(c34)N2)c(S)cc1Cl	> 100 µM (inactive)	60 µM (inactive)	> 100 µM (inactive)	> 100 µM (inactive)	41.6 µM (inactive)	–	63.5 µM (inactive)	> 100 µM (inactive)	55.6 µM (inactive)	> 100 µM (inactive)	55.1 µM (inactive)	> 100	> 100 µM (inactive)	0.316 µM (active)	84.7 µM (inactive)	> 100 µM (inactive)	44.5 µM (inactive)	> 100 µM (inactive)	60.5 µM (inactive)	97.5 µM (inactive)
COc1c(O)cc(/C=C/c2cc(O)cc3c2[C@@]2(C(=O)O3)c3c(O)cc(O)cc3OC2c2cccc(O)c2)cc1O (stereo partly drawn)	26.1 µM (inactive)	1.57 µM (inactive)	27.4 µM (inactive)	> 100 µM (inactive)	1.3 µM (inactive)	30.5 µM (inactive)	16.2 µM (inactive)	14.7 µM (inactive)	11.3 µM (inactive)	> 100 µM (inactive)	> 100 µM (inactive)	30.5	–	39.5 µM (inactive)	41.2 µM (inactive)	–	30.5 µM (inactive)	> 100 µM (inactive)	32 µM (inactive)	52.2 µM (inactive)
COc1ccc(NCc2cc(OC)c(OC)c(OC)c2)cc1	–	0.228 µM (active)	–	1.39 µM (inactive)	0.493 µM (active)	0.312 µM (active)	0.582 µM (active)	0.612 µM (active)	0.385 µM (active)	0.488 µM (active)	0.597 µM (active)	0.18	–	0.0867 µM (active)	0.291 µM (active)	4.74 µM (inactive)	–	–	0.293 µM (active)	0.372 µM (active)

From ChEMBL document CHEMBL1201862, “PubChem BioAssay data set” (2004)
